Test results as given in the NIST ThermoML archive (doi:10.1021/je200964m).

What was measured:
[1] = mn = molality of the nth substance listed, in mol/kg; details: 298.15 K, 100 kPa, Liquid, Vibrating tube method
[2] = molar heat capacity at constant pressure; mn = molality of the nth substance listed, in mol/kg; details: 298.15 K, 100 kPa, Liquid

CCCC(=O)[O-].[Na+] [sodium butyrate] + O
[1]
Details	mass density [kg/m3]
m1 = 0.01976	997.868
m1 = 0.04005	998.697
m1 = 0.06005	999.507
m1 = 0.08053	1000.32
m1 = 0.102	1001.17
m1 = 0.2495	1006.98
m1 = 0.4997	1016.49
m1 = 0.7508	1025.47
m1 = 1	1034.04
m1 = 1.993	1064.55
m1 = 4	1109.06
m1 = 5.997	1136.24

[2], Flow calorimetry
Details	molar heat capacity at constant pressure [J/K/mol]
m1 = 0.01976	75.41
m1 = 0.04005	75.47
m1 = 0.06005	75.54
m1 = 0.08053	75.61
m1 = 0.102	75.68
m1 = 0.2495	76.19
m1 = 0.4997	77.12
m1 = 0.7508	78.09
m1 = 1	79.11
m1 = 1.993	83.42
m1 = 4	91.23
m1 = 5.997	97.99

O=C[O-].[Na+] [sodium methanoate] + O
Details	mass density, [1] [kg/m3]	molar heat capacity at constant pressure, [2] [J/K/mol]
m1 = 0.00974	997.482	74.69
m1 = 0.01004	997.512	74.71
m1 = 0.02003	997.907	74.79
m1 = 0.02065	997.932	74.7
m1 = 0.04058	998.75	74.71
m1 = 0.04064	998.753	74.79
m1 = 0.06027	999.589	74.76
m1 = 0.06153	999.685	74.66
m1 = 0.08026	1000.45	74.73
m1 = 0.08098	1000.47	74.63
m1 = 0.1002	1001.25	74.72
m1 = 0.1006	1001.27	74.62
m1 = 0.1998	1005.36	74.62
m1 = 0.25	1007.39	74.49
m1 = 0.5003	1017.41	74.3
m1 = 0.5005	1017.34	74.41
m1 = 0.75	1027.24	74.33
m1 = 0.7507	1027.17	74.18
m1 = 1	1036.61	73.86
m1 = 1.008	1037.01	74.26
m1 = 2	1072.42	74.32
m1 = 2.576	1092.07	75.46
m1 = 3.968	1134.81	75.93
m1 = 4	1135.38	75.98
m1 = 5.998	1188.91	78.43
m1 = 6.036	1190.2	77.81
m1 = 8.011	1235.13	81.13
m1 = 10.01	1275.62	84.02
